Experimental data reported in ChEMBL document CHEMBL1151107, “Inhibition of dopamine beta-hydroxylase by goitrin, a natural antithyroid compound” (J Nat Prod, 1988).

Assays:
[1] = target: T1, Dopamine beta-hydroxylase (Bos taurus) (UniProt P15101); test: Inhibition of bovine adrenal dopamine beta-hydroxylase assessed as norepinephrine formation per mg of protein at 0.1 mM after 45 mins
T1 sequence (whole entry): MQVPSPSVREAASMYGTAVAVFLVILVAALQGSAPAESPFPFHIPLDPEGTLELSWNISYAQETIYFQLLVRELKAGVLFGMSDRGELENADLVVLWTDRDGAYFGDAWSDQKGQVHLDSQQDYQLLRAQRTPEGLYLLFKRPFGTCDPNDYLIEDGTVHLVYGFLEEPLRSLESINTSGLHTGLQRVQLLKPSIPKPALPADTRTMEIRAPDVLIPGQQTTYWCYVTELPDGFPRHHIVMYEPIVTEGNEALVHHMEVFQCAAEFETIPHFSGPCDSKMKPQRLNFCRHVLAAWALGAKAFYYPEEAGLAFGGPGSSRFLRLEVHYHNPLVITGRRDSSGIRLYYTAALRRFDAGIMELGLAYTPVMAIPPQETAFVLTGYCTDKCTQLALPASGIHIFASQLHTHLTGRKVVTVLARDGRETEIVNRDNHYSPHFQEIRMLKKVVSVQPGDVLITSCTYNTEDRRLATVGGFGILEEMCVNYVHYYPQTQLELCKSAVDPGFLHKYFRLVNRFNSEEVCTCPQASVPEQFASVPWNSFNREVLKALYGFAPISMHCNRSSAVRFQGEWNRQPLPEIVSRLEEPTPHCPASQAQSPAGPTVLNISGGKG

Rattus norvegicus [2] = test: Inhibition of dopamine beta-hydroxylase in Sprague-Dawley rat assessed as increase in adrenal dopamine level at 50 mg/kg, ip after 4 hrs by liquid chromatography (RVb=5.9+/-1.0); format: functional; settings: route intraperitoneal
[3] = target: T1, Dopamine beta-hydroxylase (Bos taurus); test: Inhibition of bovine adrenal dopamine beta-hydroxylase at 0.2 mM
[4] = Drug level in Sprague-Dawley rat brain at 50 mg/kg, ip after 4 hrs; format: ADME, organism-based; set-up: dose 50 mg/kg, route intraperitoneal; settings: read-out: Drug uptake
[5] = target: T1, Dopamine beta-hydroxylase (Bos taurus); test: Inhibition of bovine adrenal dopamine beta-hydroxylase assessed as norepinephrine formation per mg of protein at 0.2 mM after 45 mins
Rattus norvegicus [6] = test: Inhibition of dopamine beta-hydroxylase in Sprague-Dawley rat assessed as decrease in brain norepinephrine level at 50 mg/kg, ip after 2.5 hrs by liquid chromatography (RVb=0.216+/-0.025); format: functional; settings: route intraperitoneal
Rattus norvegicus [7] = test: Inhibition of dopamine beta-hydroxylase in Sprague-Dawley rat assessed as decrease in brain norepinephrine level at 50 mg/kg, ip after 6 hrs by liquid chromatography (RVb=0.206+/-0.022); format: functional; settings: route intraperitoneal
[8] = target: T1, Dopamine beta-hydroxylase (Bos taurus); test: Inhibition of bovine adrenal dopamine beta-hydroxylase at 0.1 mM
Rattus norvegicus [9] = test: Inhibition of dopamine beta-hydroxylase in Sprague-Dawley rat assessed as increase in cardiac dopamine level at 50 mg/kg, ip after 4 hrs by liquid chromatography (RVb=0.023+/-0.005); format: functional; settings: route intraperitoneal
[10] = Drug level in Sprague-Dawley rat heart at 50 mg/kg, ip after 4 hrs; format: ADME, organism-based; set-up: dose 50 mg/kg, route intraperitoneal; settings: read-out: Drug uptake
Rattus norvegicus [11] = test: Inhibition of dopamine beta-hydroxylase in Sprague-Dawley rat assessed as decrease in brain norepinephrine level at 50 mg/kg, ip after 1 hr by liquid chromatography (RVb=0.222+/-0.069); format: functional; settings: route intraperitoneal

| SMILES | Activity [1] [nmol] | Activity (Rattus norvegicus [2]) [µg/g] | inhibition [3] [%] | concentration at 4 h [4] [ng/g] | Activity [5] [nmol] | Activity (Rattus norvegicus [6]) [µg/g] | Activity (Rattus norvegicus [7]) [µg/g] | inhibition [8] [%] | Activity (Rattus norvegicus [9]) [µg/g] | concentration at 4 h [10] [ng/g] | Activity (Rattus norvegicus [11]) [µg/g] |
| --- | --- | --- | --- | --- | --- | --- | --- | --- | --- | --- | --- |
| C=C[C@@H]1CNC(=S)O1 | 62 | – | – | – | – | – | – | – | – | – | – |
| C=CC1CNC(=S)O1 (stereo unspecified) | 77 | 10 | 78 | 21000 | 49 | 0.158 | 0.092 | 55 | 0.071 | 22300 | 0.249 |
| Cn1ccnc1S [METHIMAZOLE] | – | – | – | – | 53 | 0.143 | 0.076 | – | – | – | 0.216 |
